Results as given in ChEMBL document CHEMBL1909046, “DrugMatrix in vitro pharmacology data”.

Columns and labels:
[1] = molecular target: T1, Alpha-1D adrenergic receptor (Homo sapiens, UniProt P25100); type: cell membranes, HEK293, Membrane; conditions: hek293; note: in other assays of this panel Not Active means under 50% inhibition at 10 µM
T1 sequence (P25100 whole entry): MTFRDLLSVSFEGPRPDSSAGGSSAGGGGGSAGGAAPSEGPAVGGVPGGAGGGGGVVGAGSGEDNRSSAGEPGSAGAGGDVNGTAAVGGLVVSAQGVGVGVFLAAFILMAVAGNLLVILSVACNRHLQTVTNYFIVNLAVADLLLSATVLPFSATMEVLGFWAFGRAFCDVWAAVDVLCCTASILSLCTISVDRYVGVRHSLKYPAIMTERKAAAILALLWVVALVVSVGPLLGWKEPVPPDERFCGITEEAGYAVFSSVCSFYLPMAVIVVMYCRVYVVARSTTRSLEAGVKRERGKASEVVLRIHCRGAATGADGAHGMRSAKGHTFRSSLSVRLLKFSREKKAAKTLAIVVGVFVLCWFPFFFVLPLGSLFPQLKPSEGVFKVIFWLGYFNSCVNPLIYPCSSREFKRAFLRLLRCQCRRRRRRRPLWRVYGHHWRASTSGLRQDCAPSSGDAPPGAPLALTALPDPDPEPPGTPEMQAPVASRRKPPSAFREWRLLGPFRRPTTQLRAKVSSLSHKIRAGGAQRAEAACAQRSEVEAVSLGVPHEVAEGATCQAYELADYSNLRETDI

[2] = molecular target: T2, C-C chemokine receptor type 4 (Homo sapiens, UniProt P51679); type: cell membranes, Membrane; conditions: chem-1; note: in other assays of this panel Not Active means under 50% inhibition at 10 µM
T2 sequence (P51679 whole entry): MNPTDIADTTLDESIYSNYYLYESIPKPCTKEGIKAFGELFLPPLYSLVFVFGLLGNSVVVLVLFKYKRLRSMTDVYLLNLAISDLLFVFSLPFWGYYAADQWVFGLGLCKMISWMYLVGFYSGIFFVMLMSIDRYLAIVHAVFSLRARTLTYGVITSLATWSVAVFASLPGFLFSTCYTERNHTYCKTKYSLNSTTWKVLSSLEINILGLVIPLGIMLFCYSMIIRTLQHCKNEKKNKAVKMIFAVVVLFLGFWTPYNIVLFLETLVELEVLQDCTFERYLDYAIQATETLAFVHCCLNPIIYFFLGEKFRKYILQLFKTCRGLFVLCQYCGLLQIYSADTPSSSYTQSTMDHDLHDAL

[3] = molecular target: T3, C-X-C chemokine receptor type 1 (Homo sapiens, UniProt P25024); note: in other assays of this panel Not Active means under 50% inhibition at 10 µM
T3 sequence (P25024 whole entry): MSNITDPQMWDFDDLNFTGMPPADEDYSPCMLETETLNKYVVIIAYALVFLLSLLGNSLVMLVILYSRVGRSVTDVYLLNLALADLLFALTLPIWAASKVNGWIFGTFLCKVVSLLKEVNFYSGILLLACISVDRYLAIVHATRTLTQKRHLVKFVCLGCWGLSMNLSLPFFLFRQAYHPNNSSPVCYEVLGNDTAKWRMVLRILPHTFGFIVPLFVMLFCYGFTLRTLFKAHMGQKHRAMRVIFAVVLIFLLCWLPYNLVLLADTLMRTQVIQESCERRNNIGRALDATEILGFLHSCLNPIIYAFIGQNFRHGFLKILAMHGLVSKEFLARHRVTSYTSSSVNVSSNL

[4] = DRUGMATRIX: Potassium Channel [KATP] radioligand binding (ligand: [3H] Glyburide); type: cell membranes, Membrane; conditions: hit-t15; Not Active = under 50% inhibition at 10 µM
[5] = molecular target: Matrix metalloproteinase-9 (Homo sapiens, UniProt P14780); assay: biochemical; type: cell-based;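 note: inhibition of isolated MMP-9 enzyme activity toward a synthetic peptide substrate, from the DrugMatrix protease screening panel; in other assays of this panel Not Active means under 50% inhibition at 10 µM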
[6] = molecular target: Protein phosphatase 3 catalytic subunit alpha (Homo sapiens, UniProt Q08209); design: species or system Escherichia coli
[7] = molecular target: T4, Receptor-type tyrosine-protein phosphatase C (Homo sapiens, UniProt P08575); design: species or system Escherichia coli
T4 sequence (P08575 whole entry): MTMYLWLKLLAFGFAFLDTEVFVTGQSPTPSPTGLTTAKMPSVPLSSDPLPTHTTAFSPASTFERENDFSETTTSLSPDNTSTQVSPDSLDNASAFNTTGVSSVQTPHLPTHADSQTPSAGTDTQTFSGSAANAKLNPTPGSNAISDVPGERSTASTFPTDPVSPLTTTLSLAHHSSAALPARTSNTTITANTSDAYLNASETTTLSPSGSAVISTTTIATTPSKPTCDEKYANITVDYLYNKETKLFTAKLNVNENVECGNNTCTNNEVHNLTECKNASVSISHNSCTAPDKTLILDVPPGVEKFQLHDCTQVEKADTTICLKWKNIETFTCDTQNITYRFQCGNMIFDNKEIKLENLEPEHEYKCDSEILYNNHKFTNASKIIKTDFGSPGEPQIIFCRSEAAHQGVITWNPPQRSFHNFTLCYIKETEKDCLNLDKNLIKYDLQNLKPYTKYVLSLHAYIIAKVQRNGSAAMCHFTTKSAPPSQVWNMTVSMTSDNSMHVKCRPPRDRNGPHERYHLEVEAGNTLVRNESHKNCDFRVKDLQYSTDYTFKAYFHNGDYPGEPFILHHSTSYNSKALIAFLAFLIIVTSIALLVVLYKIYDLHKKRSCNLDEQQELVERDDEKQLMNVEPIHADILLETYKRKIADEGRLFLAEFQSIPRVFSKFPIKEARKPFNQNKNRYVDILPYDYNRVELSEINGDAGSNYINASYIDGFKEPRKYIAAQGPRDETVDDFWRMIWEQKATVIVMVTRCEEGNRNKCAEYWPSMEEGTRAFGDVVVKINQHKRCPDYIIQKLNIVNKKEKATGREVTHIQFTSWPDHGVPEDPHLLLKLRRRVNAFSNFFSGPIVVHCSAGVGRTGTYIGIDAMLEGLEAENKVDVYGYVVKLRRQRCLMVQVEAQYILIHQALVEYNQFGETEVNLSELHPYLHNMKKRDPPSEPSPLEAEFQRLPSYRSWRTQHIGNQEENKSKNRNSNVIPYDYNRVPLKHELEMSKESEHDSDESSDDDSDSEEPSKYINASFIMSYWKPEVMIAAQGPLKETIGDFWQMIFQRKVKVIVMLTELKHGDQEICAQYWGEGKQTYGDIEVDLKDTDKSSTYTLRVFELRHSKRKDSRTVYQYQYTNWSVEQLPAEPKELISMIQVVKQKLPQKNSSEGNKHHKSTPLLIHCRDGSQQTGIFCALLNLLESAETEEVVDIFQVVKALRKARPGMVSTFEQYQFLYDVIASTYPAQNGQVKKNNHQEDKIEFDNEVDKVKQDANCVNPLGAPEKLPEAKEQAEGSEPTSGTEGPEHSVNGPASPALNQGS

Matrix metalloproteinase-9, sequence (P14780 whole entry): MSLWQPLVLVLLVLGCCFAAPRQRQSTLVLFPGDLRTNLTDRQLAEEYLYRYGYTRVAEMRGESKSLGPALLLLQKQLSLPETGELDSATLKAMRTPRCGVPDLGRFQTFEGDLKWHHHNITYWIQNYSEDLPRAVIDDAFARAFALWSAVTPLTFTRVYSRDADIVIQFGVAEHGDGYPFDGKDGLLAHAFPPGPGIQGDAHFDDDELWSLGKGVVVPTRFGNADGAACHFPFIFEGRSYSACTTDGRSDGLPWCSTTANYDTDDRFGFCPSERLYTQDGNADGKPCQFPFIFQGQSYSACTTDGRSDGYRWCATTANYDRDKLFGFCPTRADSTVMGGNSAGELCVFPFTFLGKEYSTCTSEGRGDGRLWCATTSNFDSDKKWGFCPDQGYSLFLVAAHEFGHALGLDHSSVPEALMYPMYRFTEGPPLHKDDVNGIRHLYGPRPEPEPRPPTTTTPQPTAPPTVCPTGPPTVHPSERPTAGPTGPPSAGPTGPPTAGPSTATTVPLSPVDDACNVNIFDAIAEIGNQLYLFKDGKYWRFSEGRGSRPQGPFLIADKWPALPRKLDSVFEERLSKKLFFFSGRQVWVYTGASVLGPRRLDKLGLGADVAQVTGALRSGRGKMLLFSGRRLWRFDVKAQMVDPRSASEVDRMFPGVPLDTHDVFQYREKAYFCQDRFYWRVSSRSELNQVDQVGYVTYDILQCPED

COc1cc(CNC(=O)CCCC/C=C/C(C)C)ccc1O [CAPSAICIN]
Not Active: IC50 [1] | IC50 [2] | IC50 [3] | IC50 [4] | Ki [4] | IC50 [5] | IC50 [6] | IC50 [7]

C[C@H](C(=O)O)c1cccc(C(=O)c2ccccc2)c1 [DEXKETOPROFEN]
Not Active: IC50 [1] | IC50 [2] | IC50 [3] | IC50 [4] | Ki [4] | IC50 [5] | IC50 [6] | IC50 [7]

NC[C@@H]1O[C@H](O[C@H]2[C@@H](O)[C@H](O[C@@H]3[C@@H](O)[C@H](N)C[C@H](N)[C@H]3O[C@H]3O[C@H](CN)[C@@H](O)[C@H](O)[C@H]3N)O[C@@H]2CO)[C@H](N)[C@@H](O)[C@@H]1O [FRAMYCETIN]
Not Active: IC50 [1] | IC50 [2] | IC50 [3] | IC50 [4] | Ki [4] | IC50 [5] | IC50 [6] | IC50 [7]

C[C@]12C/C(=C/O)C(=O)C[C@@H]1CC[C@@H]1[C@@H]2CC[C@@]2(C)[C@H]1CC[C@]2(C)O [OXYMETHOLONE]
Not Active: IC50 [1] | IC50 [2] | IC50 [3] | IC50 [4] | Ki [4] | IC50 [5] | IC50 [6] | IC50 [7]

C[C@@H]1CC[C@H]2[C@@H](C)C(=O)O[C@@H]3O[C@@]4(C)CC[C@@H]1[C@]32OO4 [ARTEMISININ]
Not Active: IC50 [1] | IC50 [2] | IC50 [3] | IC50 [4] | Ki [4] | IC50 [5] | IC50 [6] | IC50 [7]

CCOC(=O)[C@H](CCc1ccccc1)N[C@@H](C)C(=O)N1Cc2ccccc2C[C@H]1C(=O)O
Not Active: IC50 [1] | IC50 [2] | IC50 [3] | IC50 [4] | Ki [4] | IC50 [5] | IC50 [6] | IC50 [7]

C=C1/C(=C\C=C2/CCC[C@]3(C)[C@@H]([C@H](C)CCCC(C)C)CC[C@@H]23)C[C@@H](O)C[C@@H]1O [ALFACALCIDOL]
Not Active: IC50 [1] | IC50 [2] | IC50 [3] | IC50 [4] | Ki [4] | IC50 [5] | IC50 [6] | IC50 [7]

CCCCC1C(=O)N(c2ccccc2)N(c2ccccc2)C1=O [PHENYLBUTAZONE]
Not Active: IC50 [1] | IC50 [2] | IC50 [3] | IC50 [4] | Ki [4] | IC50 [5] | IC50 [6] | IC50 [7]

Cc1cn[nH]c1 [FOMEPIZOLE]
Not Active: IC50 [1] | IC50 [2] | IC50 [3] | IC50 [4] | Ki [4] | IC50 [5] | IC50 [6] | IC50 [7]

COc1ccccc1OCC(O)CO (configuration not stated) [GUAIFENESIN]
Not Active: IC50 [1] | IC50 [2] | IC50 [3] | IC50 [4] | Ki [4] | IC50 [5] | IC50 [6] | IC50 [7]

[N-]=[N+]=CC(=O)OC[C@H](N)C(=O)O [AZASERINE]
Not Active: IC50 [1] | IC50 [2] | IC50 [3] | IC50 [4] | Ki [4] | IC50 [5] | IC50 [6] | IC50 [7]

N[C@@H](Cc1ccc(F)cc1)C(=O)O
Not Active: IC50 [1] | IC50 [2] | IC50 [3] | IC50 [4] | Ki [4] | IC50 [5] | IC50 [6] | IC50 [7]

O=C(/C=C/c1ccc(O)c(O)c1)OCCc1ccccc1 [CAFFEIC ACID PHENETHYL ESTER]
Not Active: IC50 [1] | IC50 [2] | IC50 [3] | IC50 [4] | Ki [4] | IC50 [5] | IC50 [6] | IC50 [7]

CCOC(=O)C1=C(C)NC(C)=C(C(=O)OC)C1c1cccc(Cl)c1Cl (configuration not stated) [FELODIPINE]
Not Active: IC50 [1] | IC50 [2] | IC50 [3] | IC50 [4] | Ki [4] | IC50 [5] | IC50 [6] | IC50 [7]

OCCO [ETHYLENE GLYCOL]
Not Active: IC50 [1] | IC50 [2] | IC50 [3] | IC50 [4] | Ki [4] | IC50 [5] | IC50 [6] | IC50 [7]

CCC[C@@H]1C[C@@H](C(=O)N[C@@H]([C@H]2O[C@H](SC)[C@H](O)[C@@H](O)[C@H]2O)[C@H](C)Cl)N(C)C1 [CLINDAMYCIN]
Not Active: IC50 [1] | IC50 [2] | IC50 [3] | IC50 [4] | Ki [4] | IC50 [5] | IC50 [6] | IC50 [7]

C[C@H]([C@](O)(Cn1cncn1)c1ccc(F)cc1F)S(C)(=O)=O [GENACONAZOLE]
Not Active: IC50 [1] | IC50 [2] | IC50 [3] | IC50 [4] | Ki [4] | IC50 [5] | IC50 [6] | IC50 [7]

Nc1nc(N)nc(NC2CC2)n1 [CYROMAZINE]
Not Active: IC50 [1] | IC50 [2] | IC50 [3] | IC50 [4] | Ki [4] | IC50 [5] | IC50 [6] | IC50 [7]

CC[C@H](C)C(=O)O[C@H]1C[C@H](O)C=C2C=C[C@H](C)[C@H](CC[C@@H](O)C[C@@H](O)CC(=O)O)[C@H]21 [PRAVASTATIN]
Not Active: IC50 [1] | IC50 [2] | IC50 [3] | IC50 [4] | Ki [4] | IC50 [5] | IC50 [6] | IC50 [7]
